Laboratory results published in patent US20050032841A1, “Therapeutic compositions and methods of treating glycolipid storage related disorders” (priority 1999, published 2005).
Values joined by “and” are separate entries in the source; they are usually repeats but may differ in a detail not shown here. Identical values can stand only once.

Columns and labels:
[1] = system: α-glucosidase I and II; conditions: cited from earlier work
[2] = system: GSL synthesis; conditions: compared with NB-DNJ; cited from earlier work
[3] = system: in vitro model of Gaucher disease; conditions: cited from earlier work
[4] = Serum enzyme activity and half life of Ceredase after i.v. injection in mice, with or without NB-DNJ pre-treatment; type: in vivo; parameters: unit not given here; conditions: mice treated with NB-DNJ 4800 mg/kg/day for 5 weeks
Description: A group of mice were treated with NB-DNJ at 4800 mg/kg/day for 5 weeks. After a low intravenous dose (5-10 U/kg) of Ceredase™ (Genzyme Corporation) administered as a single injection via the tail vein, serum enzyme activity was measured by taking sequential serum samples from the tail vein to monitor enzyme activity over time. Ceredase™ is a modified form of β glucocerebrosidase.

[5] = system: MPS IIIA mice; assay: Murine model of MPS IIIA: brain immunocytochemistry (GM2, GM3) and auto-fluorescent material; type: in vivo
Source text: Colonies of mutant mice expressing the MPS IIIA phenotype have been described, and have been validated by a number of criteria as an authentic model of the disease (Stanley, P et al (1999) Glycobiology 9: 1389-1396). MPS IIIA mice display clinical signs of the disease around 6 months of age with decreased activity, scruffy coat, abdominal distention, hunched posture and waddling gait. […] Death results by 18 months or less.
The brains of MPS mice are grossly normal. […] White matter and Purkinje cells display axonal spheroids. Anti-heparan sulfate immunostaining indicates accumulation of heparan sulfate fragments in the cerebral cortex of MPS IIIA animals.
MPS IIIA mice were treated with 1200 mg/kg/day, beginning at 4 weeks of age, with NB-DNJ. Brain samples from animals were taken at 8 weeks of age (4 weeks of treatment with NB-DNJ) and subjected to immunocytochemistry with an anti-GM2 ganglioside-specific monoclonal antibody. […] Upper cortex, ii. Lower cortex; B: NB-DNJ Treated, i. Upper cortex, ii. Lower cortex.
The hippocampus (CA4-Dentate Gyrus) of the MPS IIIA animals was also examined for staining by a GM2 Ganglioside-specific monoclonal antibody.
Cerebral cortex samples from animals were also taken at 40 weeks of age (36 weeks of treatment with NB-DNJ) and subjected to immunocytochemistry with an anti-GM3 ganglioside-specific monoclonal antibody. Anti-GM2 staining was similar to anti-GM3 staining in both treated and untreated animals, respectively (data not shown).
The brains of animals affected by MPS IIIA, as well as some other of the mucopolysaccharidoses, store heterogeneous auto-fluorescent material in addition to glycolipids. Thus, the cerebral cortex of MPS IIIA animals either left untreated or treated for 36 weeks with NB-DNJ were also examined for the presence of auto-fluorescent material.

[6] = system: mouse model of Tay-Sachs disease; conditions: asymptomatic Tay-Sachs mouse model; cited from earlier work
[7] = system: Sandhoff mice; assay: Survival of Sandhoff mice treated with NB-DNJ and/or bone marrow transplantation; type: in vivo; conditions: BMT at two weeks of age, NB-DNJ 600 mg/kg/day from 9.5-11 weeks of age

SMILES | Inhibition of α-glucosidase I and II [1] | Inhibition of GSL synthesis in vitro [2] | Storage in in vitro model of Gaucher disease [3] | Peak Activity of Ceredase in serum, mean ± sem ([4]; Ceredase 5-10 U/kg i.v., group mean) | Peak Activity of Ceredase in serum ([4]; Ceredase 5-10 U/kg single i.v. injection, individual mice) | Pathological features in the model of MPS IIIA ([5]; NB-DNJ 1200 mg/kg/day) | Glycolipid storage in neuronal cells ([5]; NB-DNJ 1200 mg/kg/day from 4 weeks of age, anti-GM2/GM3 immunocytochemistry) | Storage of auto-fluorescent material in cerebral cortex ([5]; NB-DNJ 1200 mg/kg/day, 36 weeks of treatment) | GM2 accumulation in the brain and associated neuropathology [6] | Survival (longest survivor) [7] [days]
CCCCN1C[C@H](O)[C@@H](O)[C@@H](O)[C@H]1CO [NB-DGJ, N-butyldeoxygalactonojirimycin] | does not inhibit | as effectively as NB-DNJ |  |  |  |  |  |  |  | 
CCCCN1C[C@H](O)[C@@H](O)[C@H](O)[C@H]1CO [NB-DNJ, N-butyldeoxynojirimycin] |  |  | shown to prevent storage | 27.4 ± 7.2 | 13.9 and 32.1 and 24.1 and 13.1 and 21.0 and 68.3 and 19.2 | markedly reduces the pathological features | markedly reduced | reduced the storage of auto-fluorescent material | reduce GM2 accumulation in the brain and prevent the neuropathology | 170
